Measured values as given in patent publication US6984756B2, “Process for preparing biphenyl compounds” (Eli Lilly and Company, priority 2000, dated 2006).

Assays:
[1] = solubility in organic solvents relative to compound of formula I; assay type: physicochemical
Source text: In Scheme III above, the compound of formula I may be contaminated with achiral dimer, (methylsulfonyl){2-[4-(4-{2-[(methylsulfonyl)amino]ethyl}phenyl)phenyl]ethyl}amine and chiral dimer, ((2R)-2-{4-[4-((1R)-1-methyl-2-{[(methylethyl)sulfonyl]amino}ethyl)phenyl]phenyl}propyl)[(methylethyl)sulfonyl]amine. […] However, the above achiral dimer is less soluble in organic solvents than the compound of formula I therefore, generally resisted removal from the compound of formula I by recrystallization.

water solubility = assay type: physicochemical

solubility in organic solvents compared with the compound of formula I [1] | water solubility (water solubility) | Structure (SMILES)
less soluble |  | CS(=O)(=O)NCCc1ccc(-c2ccc(CCNS(C)(=O)=O)cc2)cc1 [achiral dimer, (methylsulfonyl){2-[4-(4-{2-[(methylsulfonyl)amino]ethyl}phenyl)phenyl]ethyl}amine]
more soluble |  | CC(C)S(=O)(=O)NC[C@H](C)c1ccc(-c2ccc([C@@H](C)CNS(=O)(=O)C(C)C)cc2)cc1 [chiral dimer, ((2R)-2-{4-[4-((1R)-1-methyl-2-{[(methylethyl)sulfonyl]amino}ethyl)phenyl]phenyl}propyl)[(methylethyl)sulfonyl]amine]
 | poor | CC(C)S(=O)(=O)NC[C@H](C)c1ccc(-c2ccc(CCNS(C)(=O)=O)cc2)cc1 [compound of formula I, {(2R)-2-[4-(4-{2-[(methylsulfonyl)amino]ethyl}phenyl)phenyl]propyl}[(methylethyl)sulfonyl]amine]
